“Also recorded” adds a separate entry of the source. Counter-ions that a name gives are not always drawn. Like-named read-outs stand apart in the source and are kept apart here.
Experiments:
[1] = Cytotoxicity assay (Cell Titer Glo); settings: African green monkey, CC50 (μM), Vero cells
[2] = tested on: EV-A71; assay: CPE inhibition assay (Cell Titer Glo) against EV-A71 in Vero cells; type: cell-based, Enterovirus A71; settings: for Selectivity Index: CC50/IC50; for anti-viral activity of analogs of Compound T3 (luminescence above 3SD cutoff): single concentration 25 μM; for anti-viral activity (luminescence above 3SD cutoff): single concentration 50 μM; for selectivity index: from IC50 and CC50
[3] = biological target: T1, EV-A71 Δ2C^116-329 (Human enterovirus 71, UniProt Q66478); assay: biochemical; type: biochemical; settings: for inhibition of the ATPase function of Δ2C^116-329 (absorbance below 3SD cutoff): single concentration 50 μM
T1 construct: EV-A71 Δ2C (amino acids 116-329) was designed with; made in house; host or cells: E. coli Rosetta 2(DE3) pLysS, pMALc5x vector
T1 sequence (Q66478 1227-1440, stated change not applied): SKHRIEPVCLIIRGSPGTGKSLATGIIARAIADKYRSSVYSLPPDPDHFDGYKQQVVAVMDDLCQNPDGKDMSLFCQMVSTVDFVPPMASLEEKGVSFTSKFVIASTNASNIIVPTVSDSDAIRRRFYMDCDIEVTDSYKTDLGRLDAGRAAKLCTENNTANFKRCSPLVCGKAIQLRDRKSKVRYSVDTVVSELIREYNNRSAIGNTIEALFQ

[4] = in vitro; settings: African green monkey
[5] = biological target: T2, EV-A71 Δ2C^116-329 (2C ATPase) (Enterovirus A71, UniProt B9VUU3); assay: 2C ATPase inhibition assay (colorimetric malachite green, dose response); type: biochemical
T2 construct: Ni-NTA and SEC purified
T2 sequence (B9VUU3 1227-1440, stated change not applied): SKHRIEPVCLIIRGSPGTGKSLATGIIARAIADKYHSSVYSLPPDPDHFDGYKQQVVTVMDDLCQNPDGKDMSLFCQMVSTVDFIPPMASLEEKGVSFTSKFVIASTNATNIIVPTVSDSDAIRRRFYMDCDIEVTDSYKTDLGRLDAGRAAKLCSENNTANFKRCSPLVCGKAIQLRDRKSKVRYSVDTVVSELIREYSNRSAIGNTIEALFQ

[6] = tested on: wild type EV-A71 (WT); type: cell-based; settings: 500 μM compound; Vero cells
[7] = tested on: EV-A71-TN (VP1-T237N mutant); type: cell-based, Enterovirus A71; settings: 500 μM compound; Vero cells
[8] = tested on: Vero cells; assay: Cytotoxicity assay (Cell Titer Glo); settings: for CC50: Vero cells
[9] = biological target: EV-A71 Δ2C^116-329; settings: previously observed; cited from earlier work
[10] = Enterovirus A, EVA71, Table 10, Scaffold 1, EV-A71, Vero cells, read-out: IC50
[11] = Enterovirus A, EVA71, Table 8, virus-induced CPE, EV-A71, Vero cells, read-out: IC50
[12] = Enterovirus A, EVA71, Table 12, Scaffold 3, EV-A71, Vero cells, read-out: IC50
[13] = Enterovirus A, EVA71, EV-A71, Vero cells, read-out: IC50 for inhibition of virus-induced CPE
[14] = Enterovirus A, EVA71, Table 7, EV-A71, Vero cells, read-out: IC50

Q: Which CC50 at 3 days ([1]; Table 10, Scaffold 1) does the source give for O=C(Cc1cccs1)Nc1ccc(-c2nc3ccccc3[nH]2)cc1 [Compound 9, N-[4-(1H-benzimidazol-2-yl)phenyl]-2-(2-thienyl)acetamide] here?
A: 338 µM

Q: What about the IC50 [2, 10] of the same molecule?
A: 104 µM

Q: What about the “Selectivity Index” value ([2]; Table 10, Scaffold 1) of the same molecule?
A: 3.26

Q: For O=C(Nc1ccc(-c2nc3ccccc3[nH]2)cc1)c1c(F)c(F)c(F)c(F)c1F [Compound 16, N-[4-(1H-benzimidazol-2-yl)phenyl]-2,3,4,5,6-pentafluorobenzamide], which CC50 at 3 days ([1]; Table 10, Scaffold 1) is on record?
A: > 400 µM

Q: What about the IC50 [2, 10] of the same molecule?
A: > 25 µM

Q: What does the source list for O=C(C=Cc1ccco1)Nc1ccc(-c2nc3ccccc3[nH]2)cc1 [Compound 20, N-[4-(1H-benzimidazol-2-yl)phenyl]-3-(2-furyl)acrylamide]?
A: CC50 at 3 days ([1]; Table 10, Scaffold 1): > 400 µM; IC50 [3]: 18.1 µM; IC50 [2, 10]: 5.41 µM; Selectivity Index ([2]; Table 10, Scaffold 1): >73.94

Q: For O=C(CSc1ccc(Cl)cc1)Nc1ccc(-c2nc3ccccc3[nH]2)cc1 [Compound 25, N-[4-(1H-benzimidazol-2-yl)phenyl]-2-[(4-chlorophenyl)thio]acetamide], which CC50 at 3 days ([1]; Table 10, Scaffold 1) is on record?
A: 582 µM

Q: And the IC50 [2, 10]?
A: > 25 µM

Q: Which results are given for Cc1ccc2[nH]c(-c3ccc(NC(=O)Cc4cccs4)cc3)nc2c1 [Compound 35, N-[4-(5-methyl-1H-benzimidazol-2-yl)phenyl]-2-(2-thienyl)acetamide]?
A: CC50 at 3 days ([1]; Table 10, Scaffold 1): > 400 µM; IC50 [2, 10]: > 25 µM

Q: For O=C(Nc1ccc(-c2nc3ccccc3o2)cc1)c1ccc(NC(=O)c2cc3ccccc3o2)cc1 [Compound 46, N-[4-({[4-(1,3-benzoxazol-2-yl)phenyl]amino}carbonyl)phenyl]-1-benzofuran-2-carboxamide], which IC50 [3] is on record?
A: 17.4 µM

Q: What about the IC50 [2, 10] of the same molecule?
A: 40 µM

Q: And the “Selectivity Index” value ([2]; Table 10, Scaffold 1)?
A: 34.49

Q: What about the CC50 at 3 days ([4]; CC50 (μM)) of the same molecule?
A: 1380 µM

Q: Which results are given for O=C(Nc1ccc(-c2nc3cc4ccccc4cc3[nH]2)cc1)c1cccc(Br)c1 [Compound 48, 3-bromo-N-[4-(1H-naphtho[2,3-d]imidazol-2-yl)phenyl]benzamide]?
A: IC50 [3]: 33.1 µM; IC50 [2, 11]: 0.71 µM; Selectivity Index ([2]; Table 8): 426.06; Selectivity Index ([2]; Table 11, Scaffold 2): 426.06; CC50 at 3 days ([4]; CC50 (μM)): 302 µM

Q: With O=C(Nc1ccc2[nH]c(-c3ccc(Br)o3)nc2c1)c1ccc([N+](=O)[O-])cc1 [Compound 51, N-[2-(5-bromo-2-furyl)-1H-benzimidazol-5-yl]-4-nitrobenzamide] as the molecule, how does the IC50 [3] read?
A: 54.1 µM

Q: And the IC50 [2, 12]?
A: 72.4 µM

Q: And the “Selectivity Index” value ([2]; Table 12, Scaffold 3)?
A: 1.74

Q: And the CC50 at 3 days ([4]; CC50 (μM))?
A: 126 µM

Q: Which CC50 at 3 days ([1]; Table 12, Scaffold 3) does the source give for CC(=O)Nc1ccc2[nH]c(-c3ccc(Br)o3)nc2c1 [Compound 52, N-[2-(5-bromo-2-furyl)-1H-benzimidazol-5-yl]acetamide] here?
A: 9.2 µM

Q: And the IC50 [2, 12]?
A: 7.1 µM

Q: What about the “Selectivity Index” value ([2]; Table 12, Scaffold 3) of the same molecule?
A: 1.30

Q: For Cc1ccc(-c2nc3cc(NC(=O)c4cccs4)ccc3[nH]2)o1 [Compound 55, N-[2-(5-methyl-2-furyl)-1H-benzimidazol-5-yl]-2-thiophenecarboxamide], which CC50 at 3 days ([1]; Table 12, Scaffold 3) is on record?
A: > 400 µM

Q: And the IC50 [2, 12]?
A: > 25 µM

Q: Which CC50 at 3 days ([1]; Table 12, Scaffold 3) does the source give for O=C(Nc1ccc2[nH]c(-c3cccs3)nc2c1)c1cccs1 [Compound 56, N-[2-(2-thienyl)-1H-benzimidazol-5-yl]-2-thiophenecarboxamide] here?
A: 123 µM

Q: What about the IC50 [2, 12] of the same molecule?
A: 20 µM

Q: What about the “Selectivity Index” value ([2]; Table 12, Scaffold 3) of the same molecule?
A: 6.17

Q: And the “anti-viral activity of analogs of Compound T3 (luminescence above 3SD cutoff)” value ([2]; EV-A71, Vero cells)?
A: have activity

Q: What does the source list for O=C(Nc1ccc2[nH]c(-c3ccco3)nc2c1)c1cccs1 [Compound 57, N-[2-(2-furyl)-1H-benzimidazol-5-yl]-2-thiophenecarboxamide]?
A: CC50 at 3 days ([1]; Table 8): 8.5 µM; CC50 at 3 days ([1]; Table 12, Scaffold 3): 8.5 µM; IC50 [2, 11]: 2.75 µM; Selectivity Index ([2]; Table 8): 3.09; Selectivity Index ([2]; Table 12, Scaffold 3): 3.09; anti-viral activity of analogs of Compound T3 (luminescence above 3SD cutoff) ([2]; EV-A71, Vero cells): have activity

Q: Which results are given for Cc1ccc2nc(-c3cccc(NC(=O)c4ccco4)c3)[nH]c2c1 [Compound 63, N-[3-(6-methyl-1H-benzimidazol-2-yl)phenyl]-2-furamide]?
A: CC50 at 3 days ([1]; Table 13, Scaffold 4): 131 µM; IC50 ([2]; Enterovirus A, EVA71, Table 13, Scaffold 4, EV-A71, Vero cells, read-out: IC50): 24.8 µM; Selectivity Index ([2]; Table 13, Scaffold 4): 5.28

Q: With OC(COC(c1ccc(F)cc1)c1ccc(F)cc1)Cn1cnc2cc(F)c(F)cc21 (stereo not drawn) [Compound 108, 1-[bis(4-fluorophenyl)methoxy]-3-(5,6-difluoro-1H-1,3-benzodiazol-1-yl)propan-2-ol] as the molecule, how does the IC50 [5] read?
A: 57.3 µM

Q: What about the “inhibition of the ATPase function of Δ2C^116-329 (absorbance below 3SD cutoff)” value [3] of the same molecule?
A: inhibited 2C ATPase; also recorded: inhibited the ATPase function

Q: And the “anti-viral activity (luminescence above 3SD cutoff)” value ([2]; EV-A71, Vero cells)?
A: did not show activity above the threshold value

Q: Which results are given for Nc1nc(N)nc(COC(=O)CCc2c(-c3ccc(F)cc3)[nH]c3ccc(F)cc23)n1 [Compound 111, (4,6-diamino-1,3,5-triazin-2-yl)methyl 3-[5-fluoro-2-(4-fluorophenyl)-1H-indol-3-yl]propanoate]?
A: IC50 [5]: 7.5 µM; inhibition of the ATPase function of Δ2C^116-329 (absorbance below 3SD cutoff) [3]: inhibited 2C ATPase; also recorded: inhibited the ATPase function; IC50 [2, 13]: 44.7 µM; IC50 [2, 14]: 44.7 µM; Selectivity Index ([2]; Table 7): 9.44; selectivity index [2]: 9.44; anti-viral activity (luminescence above 3SD cutoff) ([2]; EV-A71, Vero cells): inhibited EV-A71; CC50 at 3 days ([4]; CC50): 422 µM; CC50 at 3 days ([4]; CC50 (μM)): 422 µM

Q: Which results are given for O=c1nc(C=Cc2cn(Cc3ccccc3Cl)c3ccccc23)cc(C(F)(F)F)[nH]1 [Compound 139, 4-(2-{1-[(2-chlorophenyl)methyl]-1H-indol-3-yl}ethenyl)-6-(trifluoromethyl)-1,2-dihydropyrimidin-2-one]?
A: IC50 [5]: 71.3 µM; inhibition of the ATPase function of Δ2C^116-329 (absorbance below 3SD cutoff) [3]: inhibited 2C ATPase; also recorded: inhibited the ATPase function; anti-viral activity (luminescence above 3SD cutoff) ([2]; EV-A71, Vero cells): did not show activity above the threshold value

Q: With O=C(Cn1nc2c(Oc3cccc(F)c3)nccn2c1=O)Nc1cccc(Cl)c1 [Compound 167, N-(3-chlorophenyl)-2-[8-(3-fluorophenoxy)-3-oxo-2H,3H-[1,2,4]triazolo[4,3-a]pyrazin-2-yl]acetamide] as the molecule, how does the IC50 [5] read?
A: 61.2 µM

Q: And the “decrease in viral titer vs DMSO” value [6]?
A: ~100 fold

Q: And the “inhibition of the ATPase function of Δ2C^116-329 (absorbance below 3SD cutoff)” value [3]?
A: inhibited 2C ATPase; also recorded: inhibited the ATPase function

Q: What about the IC50 [2, 13] of the same molecule?
A: 59.4 µM

Q: What about the IC50 [2, 14] of the same molecule?
A: 59.4 µM

Q: What about the “Selectivity Index” value ([2]; Table 7) of the same molecule?
A: >16.8

Q: And the selectivity index [2]?
A: > 16.8

Q: What about the “anti-viral activity (luminescence above 3SD cutoff)” value ([2]; EV-A71, Vero cells) of the same molecule?
A: inhibited EV-A71

Q: What about the CC50 at 3 days ([4]; CC50) of the same molecule?
A: > 400 µM

Q: And the CC50 at 3 days ([4]; CC50 (μM))?
A: > 1000 µM

Q: What about the “decrease in viral titer vs DMSO” value [7] of the same molecule?
A: ~5 fold

Q: With Cc1ccc2[nH]c(-c3ccc(NC(=O)c4ccco4)cc3)nc2c1 [Compound T3, N-[4-(5-methyl-1H-benzimidazol-2-yl)phenyl]-2-furamide] as the molecule, how does the “toxicity to Vero cells” value ([8]; up to 200 μM) read?
A: no toxicity

Q: And the CC50 at 3 days ([1]; Table 6)?
A: > 200 µM

Q: And the IC50 [2, 13]?
A: 2.9 µM

Q: What about the IC50 ([2]; Enterovirus A, EVA71, Table 6, EV-A71, Vero cells, read-out: IC50) of the same molecule?
A: 2.9 µM

Q: And the “Selectivity Index” value ([2]; Table 6)?
A: >68.97

Q: And the selectivity index [2]?
A: > 68.9

Q: Which CC50 ([8]; Table 6) does the source give for Cc1[nH]c2ccc(Br)cc2c1CCN [Compound T5, [2-(5-bromo-2-methyl-1H-indol-3-yl)ethyl]aminehydrochloride] here?
A: 61.6 µM

Q: What about the IC50 ([2]; Table 6, EV-A71, Vero cells, read-out: IC50) of the same molecule?
A: 103 µM

Q: Which results are given for Cl.N=C(N)N [GnHCl, Guanidinium hydrochloride, reference compound]?
A: IC50 for inhibition of the ATPase activity of 2C [9]: millimolar range; IC50 ([3]; read-out: IC50 for ATPase inhibition): 83600 µM; IC50 ([2]; read-out: IC50 for inhibition of EV-A71): 140 µM

Q: Which CC50 ([8]; Table 10, Scaffold 1) does the source give for “N-[4-(1H-benzimidazol-2-yl)phenyl]-2-(3-4-phenylthio)acetamide [Compound 22]” here?
A: 761 µM

Q: For “N-[4-(5-methyl-1H-benzimidazol-2-yl)phenyl]-2-(3-7-phenylthio)acetamide [Compound 42]”, which CC50 ([8]; Table 10, Scaffold 1) is on record?
A: 684 µM

Q: And the IC50 ([2]; Table 10, Scaffold 1, EV-A71, Vero cells, read-out: IC50)?
A: 6.99 µM
